Data reported in patent publication US10689370B2, “Cyclopropane carboxamide modulators of cystic fibrosis transmembrane conductance regulator” (Auspex Pharmaceuticals, Inc., priority 2014, dated 2020).

Test: In vitro human liver microsomal stability assay
Assay type: in vitro ADME
Conditions: human liver microsomes 2 mg per mL protein, NADPH-generating system, 1 uM test compound, 37 °C, 0-240 min; for half-life % change over d0: degradation half-life relative to non-deuterated d0 (Example 1); for Clearance % change over d0: relative to non-deuterated d0 (Example 1)
Description: In Vitro Liver Microsomal Stability Assay
Human liver microsomal stability assays were conducted at 2 mg per mL liver microsome protein with an NADPH-generating system consisting of NADP (1 mM, pH 7.4), glucose 6-phosphate (5 mM, pH 7.4) and glucose 6-phosphate dehydrogenase (I unit/mL). Test compounds were prepared as solutions in DMSO and added to the assay mixture (1 uM, final concentration in incubation) and incubated at 37±1° C. Reactions were initiated with addition of the test compounds and stopped at 0, 60, 120 or 240 min after test article addition with stop reagent, acetonitrile. Samples were centrifuged (920×g for 10 min at 10° C.) in 96-well plates. Supernatant fractions were analyzed by LC-MS/MS to determine the percent remaining and estimate the degradation half-life of the test compounds.

| SMILES | half-life % change over d0 [%] | Clearance % change over d0 [%] |
| --- | --- | --- |
| CC(C)(CO)c1cc2cc(NC(=O)C3(c4ccc5c(c4)OC(F)(F)O5)CC3)c(F)cc2n1C[C@@H](O)CO [Example 1, (R)-1-(2,2-difluorobenzo[d][1,3]dioxol-5-yl)-N-(1-(2,3-dihydroxypropyl)-6-fluoro-2-(1-hydroxy-2-methylpropan-2-yl)-1H-indol-5-yl)cyclopropanecarboxamide, reference compound] | 0.0 | 0.0 |
| [2H]C([2H])(O)C(C)(C)c1cc2cc(NC(=O)C3(c4ccc5c(c4)OC(F)(F)O5)CC3)c(F)cc2n1C[C@@H](O)CO [Example 2] | 200.0 | −66.7 |
| [2H]C([2H])([2H])C(CO)(c1cc2cc(NC(=O)C3(c4ccc5c(c4)OC(F)(F)O5)CC3)c(F)cc2n1C[C@@H](O)CO)C([2H])([2H])[2H] [Example 3, 1-(2,2-difluoro-2H-1,3-benzodioxol-5-yl)-N-[1-[(2R)-2,3-dihydroxypropyl]-6-fluoro-2-[1-hydroxy-2-methyl(^2H6)propan-2-yl]-1H-indol-5-yl]cyclopropane-1-carboxamide] | 13.3 | −11.9 |
| [2H]C([2H])(O)[C@]([2H])(O)Cn1c(C(C)(C)CO)cc2cc(NC(=O)C3(c4ccc5c(c4)OC(F)(F)O5)CC3)c(F)cc21 [Example 4, (R)1-(2,2-difluoro-2H-1,3-benzodioxol-5-yl)-N-[1-[2,3-dihydroxy(2,3,3-^2H3)propyl]-6-fluoro-2-(1-hydroxy-2-methylpropan-2-yl)-1H-indol-5-yl]cyclopropane-1-carboxamide] | 4.8 | −4.8 |
| [2H]C([2H])(O)C(C)(C)c1cc2cc(NC(=O)C3(c4ccc5c(c4)OC(F)(F)O5)CC3)c(F)cc2n1C[C@@]([2H])(O)C([2H])([2H])O [Example 5, (R)1-(2,2-difluoro-2H-1,3-benzodioxol-5-yl)-N-[1-[2,3-dihydroxy(2,3,3-^2H3)propyl]-6-fluoro-2-(1-hydroxy-2-methyl(1,1-^2H2)propan-2-yl)-1H-indol-5-yl]cyclopropane-1-carboxamide] | 250.3 | −71.4 |
| [2H]C([2H])(O)C(C)(C)c1cc2cc(NC(=O)C3(c4ccc5c(c4)OC(F)(F)O5)C([2H])([2H])C3([2H])[2H])c(F)cc2n1C[C@@H](O)CO [Example 6] | 281.8 | −73.8 |
| [2H]C([2H])([2H])C(CO)(c1cc2cc(NC(=O)C3(c4ccc5c(c4)OC(F)(F)O5)C([2H])([2H])C3([2H])[2H])c(F)cc2n1C[C@@H](O)CO)C([2H])([2H])[2H] [Example 7, (R)-1-(2,2-difluorobenzo[d][1,3]dioxol-5-yl)-N-(1-(2,3-dihydroxypropyl)-6-fluoro-2-(1-hydroxy-2-methyl(^2H6)propan-2-yl)-1H-indol-5-yl)(^2H4)cyclopropanecarboxamide] | −4.2 | 4.8 |
| [2H]C([2H])(O)[C@H](O)Cn1c(C(C)(C)CO)cc2cc(NC(=O)C3(c4ccc5c(c4)OC(F)(F)O5)CC3)c(F)cc21 [Example 8, (R)1-(2,2-difluoro-2H-1,3-benzodioxol-5-yl)-N-[1-[2,3-dihydroxy(3,3-^2H2)propyl]-6-fluoro-2-(1-hydroxy-2-methylpropan-2-yl)-1H-indol-5-yl]cyclopropane-1-carboxamide] | 4.8 | −4.8 |
